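Method: 48-hour compound exposure of cells in 96-well plates, five concentrations, linear interpolation of endpoints. At the TGI there is no net growth.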
How the values were obtained:
Assay in all cases: DTP human tumour cell line panel, 48 h
786-0 renal = tested on: 786-0 renal
A498 renal = tested on: A498 renal
A549 NSCLC = tested on: A549 NSCLC
ACHN renal = tested on: ACHN renal
BT-549 breast = tested on: BT-549 breast
CAKI-1 renal = tested on: CAKI-1 renal
CCRF-CEM leukemia = tested on: CCRF-CEM leukemia
COLO 205 colon = tested on: COLO 205 colon
DU-145 prostate = tested on: DU-145 prostate
EKVX NSCLC = tested on: EKVX NSCLC
HCC-2998 colon = tested on: HCC-2998 colon
HCT-116 colon = tested on: HCT-116 colon
HCT-15 colon = tested on: HCT-15 colon
HL-60(TB) leukemia = tested on: HL-60(TB) leukemia
HOP-62 NSCLC = tested on: HOP-62 NSCLC
HOP-92 NSCLC = tested on: HOP-92 NSCLC
HS 578T breast = tested on: HS 578T breast
HT29 colon = tested on: HT29 colon
IGROV1 ovarian = tested on: IGROV1 ovarian
K-562 leukemia = tested on: K-562 leukemia
KM12 colon = tested on: KM12 colon
LOX IMVI melanoma = tested on: LOX IMVI melanoma
M14 melanoma = tested on: M14 melanoma
MALME-3M melanoma = tested on: MALME-3M melanoma
MCF7 breast = tested on: MCF7 breast
MDA-MB-231 breast = tested on: MDA-MB-231 breast
MDA-MB-435 = tested on: MDA-MB-435
MDA-N = tested on: MDA-N
MOLT-4 leukemia = tested on: MOLT-4 leukemia
NCI-H226 lung = tested on: NCI-H226 lung
NCI-H23 lung = tested on: NCI-H23 lung
NCI-H460 lung = tested on: NCI-H460 lung
NCI-H522 lung = tested on: NCI-H522 lung
NCI/ADR-RES ovarian = tested on: NCI/ADR-RES ovarian
OVCAR-3 ovarian = tested on: OVCAR-3 ovarian
OVCAR-4 ovarian = tested on: OVCAR-4 ovarian
OVCAR-5 ovarian = tested on: OVCAR-5 ovarian
OVCAR-8 ovarian = tested on: OVCAR-8 ovarian
PC-3 prostate = tested on: PC-3 prostate
RPMI-8226 leukemia = tested on: RPMI-8226 leukemia
RXF 393 renal = tested on: RXF 393 renal
SF-268 CNS = tested on: SF-268 CNS
SF-295 CNS = tested on: SF-295 CNS
SF-539 CNS = tested on: SF-539 CNS
SK-MEL-2 melanoma = tested on: SK-MEL-2 melanoma
SK-MEL-28 melanoma = tested on: SK-MEL-28 melanoma
SK-MEL-5 melanoma = tested on: SK-MEL-5 melanoma
SK-OV-3 ovarian = tested on: SK-OV-3 ovarian
SN12C renal = tested on: SN12C renal
SNB-19 CNS = tested on: SNB-19 CNS
SNB-75 CNS = tested on: SNB-75 CNS
SR leukemia = tested on: SR leukemia
SW-620 colon = tested on: SW-620 colon
T-47D breast = tested on: T-47D breast
TK-10 renal = tested on: TK-10 renal
U251 CNS = tested on: U251 CNS
UACC-257 melanoma = tested on: UACC-257 melanoma
UACC-62 melanoma = tested on: UACC-62 melanoma
UO-31 renal = tested on: UO-31 renal

How did the TGI (786-0 renal) turn out when `Oc1ccc2ccccc2c1-c1c(Nc2ccccc2)ccc2ccccc12` was run?
The TGI was 34.2 µM.

What about the TGI (A498 renal) of the same molecule?
The TGI was 36.2 µM.

What about the TGI (A549 NSCLC) of the same molecule?
The TGI was 38.9 µM.

What about the TGI (ACHN renal) of the same molecule?
Its TGI is 38.8 µM.

What about the TGI (BT-549 breast) of the same molecule?
Its TGI is 30.1 µM.

And the TGI (CAKI-1 renal)?
Its TGI is 28.1 µM.

What about the TGI (CCRF-CEM leukemia) of the same molecule?
Its TGI is 44.7 µM.

What about the TGI (COLO 205 colon) of the same molecule?
The TGI was 38 µM.

And the TGI (DU-145 prostate)?
Its TGI is 32.3 µM.

And the TGI (EKVX NSCLC)?
The TGI was 40 µM.

And the TGI (HCC-2998 colon)?
Its TGI is 29.2 µM.

What about the TGI (HCT-116 colon) of the same molecule?
The TGI was 33.5 µM.

What about the TGI (HCT-15 colon) of the same molecule?
Its TGI is greater than 56.4 µM.

And the TGI (HL-60(TB) leukemia)?
Its TGI is 48.4 µM.

What about the TGI (HOP-62 NSCLC) of the same molecule?
Its TGI is 30.1 µM.

And the TGI (HOP-92 NSCLC)?
Its TGI is greater than 46.5 µM.

What about the TGI (HS 578T breast) of the same molecule?
Its TGI is 41.1 µM.

And the TGI (HT29 colon)?
The TGI was greater than 53.5 µM.

What about the TGI (IGROV1 ovarian) of the same molecule?
The TGI was 18.7 µM.

And the TGI (K-562 leukemia)?
Its TGI is 41 µM.

What about the TGI (KM12 colon) of the same molecule?
Its TGI is 37.3 µM.

And the TGI (LOX IMVI melanoma)?
The TGI was 48.5 µM.

And the TGI (M14 melanoma)?
The TGI was 24.4 µM.

What about the TGI (MALME-3M melanoma) of the same molecule?
The TGI was 25 µM.

What about the TGI (MCF7 breast) of the same molecule?
Its TGI is greater than 42.7 µM.

What about the TGI (MDA-MB-231 breast) of the same molecule?
The TGI was 28.1 µM.

And the TGI (MDA-MB-435)?
The TGI was 20.2 µM.

What about the TGI (MDA-N) of the same molecule?
The TGI was 20.5 µM.

And the TGI (MOLT-4 leukemia)?
Its TGI is 46.4 µM.

And the TGI (NCI-H226 lung)?
Its TGI is 36.1 µM.

What about the TGI (NCI-H23 lung) of the same molecule?
The TGI was 30 µM.

And the TGI (NCI-H460 lung)?
Its TGI is 39.9 µM.

What about the TGI (NCI-H522 lung) of the same molecule?
Its TGI is 29.6 µM.

What about the TGI (NCI/ADR-RES ovarian) of the same molecule?
The TGI was greater than 51.3 µM.

And the TGI (OVCAR-3 ovarian)?
Its TGI is 22.7 µM.

And the TGI (OVCAR-4 ovarian)?
The TGI was 25.4 µM.

What about the TGI (OVCAR-5 ovarian) of the same molecule?
Its TGI is greater than 50.1 µM.

What about the TGI (OVCAR-8 ovarian) of the same molecule?
The TGI was 33.8 µM.

And the TGI (PC-3 prostate)?
Its TGI is 36.8 µM.

And the TGI (RPMI-8226 leukemia)?
The TGI was 47.6 µM.

And the TGI (RXF 393 renal)?
The TGI was 34.3 µM.

What about the TGI (SF-268 CNS) of the same molecule?
Its TGI is 31.6 µM.

What about the TGI (SF-295 CNS) of the same molecule?
The TGI was 30.5 µM.

And the TGI (SF-539 CNS)?
The TGI was 29.7 µM.

What about the TGI (SK-MEL-2 melanoma) of the same molecule?
The TGI was 36.3 µM.

What about the TGI (SK-MEL-28 melanoma) of the same molecule?
Its TGI is 27.4 µM.

And the TGI (SK-MEL-5 melanoma)?
Its TGI is 29 µM.

What about the TGI (SK-OV-3 ovarian) of the same molecule?
Its TGI is 18.7 µM.

And the TGI (SN12C renal)?
Its TGI is greater than 61.2 µM.

What about the TGI (SNB-19 CNS) of the same molecule?
The TGI was 37.4 µM.

And the TGI (SNB-75 CNS)?
The TGI was 31.9 µM.

And the TGI (SR leukemia)?
Its TGI is 51.6 µM.

What about the TGI (SW-620 colon) of the same molecule?
The TGI was 26.8 µM.

And the TGI (T-47D breast)?
Its TGI is 39.5 µM.

What about the TGI (TK-10 renal) of the same molecule?
Its TGI is 32.1 µM.

What about the TGI (U251 CNS) of the same molecule?
Its TGI is 52 µM.

What about the TGI (UACC-257 melanoma) of the same molecule?
The TGI was 40.3 µM.

What about the TGI (UACC-62 melanoma) of the same molecule?
The TGI was 33.6 µM.

And the TGI (UO-31 renal)?
The TGI was 29.2 µM.
